Patent US20230241029A1, “METHODS OF REDUCING POST-SURGICAL METASTASIS” (priority 2018, published 2023)

Legend:
B16F10 melanoma cells = settings: wild type mice with PVA sponges; HDC 1,500 μg/mouse i.p. thrice weekly for 2 weeks; foci counted 3 weeks after B16F10 injection; p<0.0001, n=10
Procedure: (§1) To mimic the wounding inflammation associated with surgery, sterile polyvinyl alcohol (PVA) sponges (1 cm^2 with a thickness of 2 mm) were implanted subcutaneously to wild type C57BL/6 and Nox2−/− mice (mouse strain B6.129S6-Cybbtm1Din, obtained from the Jackson Laboratory) aiming to induce tissue inflammation.
(§2) Mice received intraperitoneal injections of the NOX2-inhibitor HDC (1,500 μg/mouse) thrice weekly for 2 weeks starting two days before implantation of sponges.

[1] = test system: intracellular reactive oxygen species in CD11b+LyC6+ inflammatory monocytes; settings: sponge-bearing wild type mice; HDC 1,500 μg/mouse i.p. thrice weekly; DCFDA, one week after implantation
Procedure: The values were normalized against those of unwounded control mice on each collection day.
as §1, §2
One week after implantation of sponges, before injection of melanoma cells, peripheral blood was drawn from vena saphena of wild type and Nox2−/− mice. Blood cells were stained for CD11b and Ly6C using fluorochrome-conjugated antibodies and with DCFDA to detect content of intracellular reactive oxygen species. The content of CD11b+LyC6+inflammatory monocytes in blood and their levels of intracellular radicals was determined using flow cytometry.

Cl.Cl.NCCc1c[nH]cn1 [HDC, histamine dihydrochloride]
formation of metastases (metastatic foci in lungs) during surgical/wounding-induced inflammation (B16F10 melanoma cells): significantly reduced
ROS levels in blood inflammatory monocytes [1]: trend towards reduced ROS levels
